From ChEMBL document CHEMBL2203200, “Synthesis and antitrypanosomal activity of new 6,6,7-trisubstituted thiopyrano[2,3-d][1,3]thiazoles” (Bioorg Med Chem Lett, 2012)

Assays:
[1] = system: Trypanosoma brucei brucei; test: Antimicrobial activity against bloodstream forms of Trypanosoma brucei brucei 90-13 at 1 ug/ml after 72 hrs by resazurin assay; type: functional; conditions: 90-13, 72 h
[2] = system: Trypanosoma brucei gambiense; test: Antimicrobial activity against bloodstream forms of Trypanosoma brucei gambiense Feo after 72 hrs by resazurin assay; type: functional, organism-based
[3] = system: Trypanosoma brucei brucei; test: Antimicrobial activity against bloodstream forms of Trypanosoma brucei brucei 90-13 after 72 hrs by resazurin assay; type: functional, organism-based; conditions: 90-13, 72 h
[4] = system: Trypanosoma brucei brucei; test: Antimicrobial activity against bloodstream forms of Trypanosoma brucei brucei 90-13 at 10 ug/ml after 72 hrs by resazurin assay; type: functional; conditions: 90-13, 72 h
[5] = system: Trypanosoma brucei gambiense; test: Antimicrobial activity against bloodstream forms of Trypanosoma brucei gambiense Feo at 10 ug/ml after 72 hrs by resazurin assay; type: functional
[6] = system: Trypanosoma brucei gambiense; test: Antimicrobial activity against bloodstream forms of Trypanosoma brucei gambiense Feo at 1 ug/ml after 72 hrs by resazurin assay; type: functional

IC50 [2] [nM] | IC50 [3] [nM] | SMILES | inhibition at 1 µg/mL [1] [%] | inhibition at 10 µg/mL [4] [%] | inhibition at 10 µg/mL [5] [%] | inhibition at 1 µg/mL [6] [%]
423 | 262 | COc1ccc([C@H]2c3sc(=O)[nH]c3SC[C@]23CC(=O)N(c2ccc(Cl)cc2)C3=O)cc1OC (relative stereo) | 82.4 | 93.6 | – | –
3620 | 2400 | CCN(CC)c1ccc([C@H]2c3sc(=O)[nH]c3SC[C@]23CC(=O)N(c2ccc(Cl)cc2)C3=O)cc1 (relative stereo) | 21.1 | 98.2 | – | –
1470 | 1280 | CN(C)c1ccc([C@H]2c3sc(=O)[nH]c3SC[C@]23CC(=O)N(c2ccc(Cl)cc2)C3=O)cc1 (relative stereo) | 36.8 | 98.2 | – | –
– | – | O=C1C[C@]2(CSc3[nH]c(=O)sc3[C@@H]2c2ccccc2O)C(=O)N1c1ccc(Cl)cc1 (relative stereo) | 13.4 | 11.5 | 19.3 | 0.9
– | – | O=C1C[C@]2(CSc3[nH]c(=O)sc3[C@@H]2c2ccccc2O)C(=O)N1c1ccc(O)cc1 (relative stereo) | 7 | 18.5 | 15.4 | < 5
– | – | Cc1cccc(N2C(=O)C[C@]3(CSc4[nH]c(=O)sc4[C@@H]3c3ccccc3O)C2=O)c1 (relative stereo) | 5.5 | 24.5 | 15.3 | < 5
– | – | COc1cc([C@H]2c3sc(=O)[nH]c3SC[C@@]2(CC(=O)O)C(=O)O)ccc1OCc1ccccc1 (relative stereo) | 18.1 | < 5 | – | –
– | – | COc1cc([C@H]2c3sc(=O)[nH]c3SC[C@@]2(CC(=O)O)C(=O)O)ccc1OC(F)F (relative stereo) | 11.3 | < 5 | – | –
– | – | CN(C)c1ccc([C@H]2c3sc(=O)[nH]c3SC[C@@]2(CC(=O)O)C(=O)O)cc1 (relative stereo) | 5.3 | < 5 | – | –
– | – | CCN(CC)c1ccc([C@H]2c3sc(=O)[nH]c3SC[C@@]2(CC(=O)O)C(=O)O)cc1 (relative stereo) | < 5 | 5.6 | – | –
– | – | COc1ccc([C@H]2c3sc(=O)[nH]c3SC[C@]23CC(=O)N(c2ccc(Cl)cc2)C3=O)cc1 (relative stereo) | 10.6 | 13 | 9.8 | 2.3
5.2 | 3.2 | N=C(N)c1ccc(OCCCCCOc2ccc(C(=N)N)cc2)cc1 [PENTAMIDINE] | – | – | – | –
